Data as given in patent US8450456B2, “Activating peptide of the synthesis of aquaporins and cosmetic and/or pharmaceutical composition containing it” (ISP Investments Inc., priority 2007, dated 2013).
Ends that are not written are not given here.

Legend:
[1] = test system: aquaporin 3; assay: Expression of aquaporin 3 by immunofluorescence in samples of skin ex vivo; type: cell-based, human; conditions: 1% solution of a mother solution at 50 ppm applied topically, 24 hours or 48 hours (0.05 ppm); upper layers of the epidermis; vs non-treated control
Description: The aim of this study is to determine the influence of the peptide SEQ ID no5 on the expression of aquaporin 3 in samples of skin ex vivo.
Protocol: Samples of human skin are cultured at the air/liquid interface. A 1% solution of a mother solution at 50 ppm of peptide SEQ ID no4 is applied topically, then the samples are incubated for 24 hours or 48 hours.
These skin samples are then fixed with formaldehyde then enclosed in paraffin. Sections of 2 to 3 μm are then realized. The immunolabeling is carried out after different stages of washing and incubation of these sections. The immunolabeling is carried out by means of a specific polyclonal antibody of aquaporin 3 (anti-aquaporin 3 (C-18): goat polyclonal, sc-9885, Santa Cruz, dilution 1/100th), then a secondary antibody, coupled to a fluorescent marker (alexa-fluor 488 donkey anti-goat Ig G, Molecular Probes, dilution 1/1000th). The skin sections are then examined by epifluorescence microscope (Nikon Eclipse E600 microscope).

[2] = test system: normal human keratinocytes; assay: Protective effect against osmotic shock caused by sorbitol, viability test by MTT; type: cell-based; conditions: sorbitol 250 mM 24 hours, vs non-treated cells
Description: The aim of this study is to determine the protective effect of the peptide SEQ ID no4 with respect to normal human keratinocytes subjected to an osmotic shock caused by sorbitol. The evaluation of the cellular state is then carried out by a viability test by MTT.
Normal human keratinocytes in culture were placed in the presence of the peptide SEQ ID no4 at 0.5%, 1% and 3% from a mother solution at 50 ppm, 24 hours before and during the osmotic shock. The hypertonic culture conditions were realized by adding sorbitol at 250 mM to the culture medium for 24 hours. Non-treated controls are carried out.
Cellular viability tests were then carried out by the MTT technique. The MTT agent (3-[4,5-dimethylthiazol-2-yl]-2,5-diphenyltetrazolium bromide) is used to evaluate the cellular viability. The keratinocytes are incubated in a solution containing 0.1 mg/ml MTT (3-[4,5-dimethylthiazol-2-yl]-2,5-diphenyltetrazolium bromide). This compound is absorbed by the living cells, then metabolized by the mitochondrial enzymes (succinate dehydrogenase) in a blue-violet compound, formazan, which is present in the form of insoluble violet crystals in aqueous medium.
The formazan crystals are solubilized in DMSO. They produce an absorbance (O.D.) proportional to the number of living cells present in the sample. Measurements of absorbance at 540 nm are then carried out. […]

[3] = test system: keratin K10; assay: Expression of keratin K10 by immunofluorescence on sections of human skin; type: cell-based; conditions: 1% solution of a mother solution at 50 ppm applied topically, 24 hours (0.05 ppm); in particular the upper layers of the epidermis
Source text: (§1) The aim of this study is to determine the influence of the peptide SEQ ID no 5 on the expression of claudins and of keratin K10. Claudins are the principal transmembrane proteins of the intercellular adhesion structures known as tight-junction, which play a part in the cellular communication and in epidermal cohesion. Keratin K10 is a specific keratin of the differentiated epidermal layers (stratum granulosum) and is involved in the barrier function of the skin. The quantity of protein was evaluated by immunofluorescence on sections of human skin.
(§2) Protocol: Samples of human skin are cultured at the air/liquid interface. A 1% solution of a mother solution at 50 ppm of peptide SEQ ID no5 is applied topically, then the samples are incubated for 24 hours.
(§3) These skin samples are then fixed with formaldehyde, then enclosed in paraffin. Sections of 2 to 3 μm are then realized. The immunolabeling is carried out after different stages of washing and of incubation of these sections.
The immunolabeling of keratin 10 is carried out by means of a specific antibody of keratin 10 (antibody K10: mouse monoclonal, ref: LHP1, Novocastra, dilution 1/50th), then a secondary antibody, coupled to a fluorescent marker (alexa Fluor 488 donkey anti-mouse IgG, A21202, Molecular Probes, 1/1000th).
(§4) The skin sections are then examined by epifluorescence microscope (Nikon Eclipse E600 microscope).

[4] = test system: Biopsies of human skin relieved of their stratum corneum; assay: Protective effect against induced cutaneous dehydration (tape stripping), ex vivo skin biopsies, H&E histology; type: cell-based; conditions: 1% solution of a mother solution at 50 ppm, 24 hours, stripped ex vivo human skin
Description: The aim of this study is to determine the protective effect of the peptide SEQ ID no5 with respect to ex vivo epidermis cultures subjected to a stress by an induced cutaneous dehydration.
Biopsies of human skin are relieved of their stratum corneum by stripping by means of an adhesive tape (tape stripping) then held in culture ex vivo, treated with a 1% solution of a mother solution at 50 ppm of peptide SEQ ID no5 for 24 hours. The absence of the stratum corneum induces a high dehydration. Hematoxylin-eosin (H&E) histological sections and stains allow the quality of the cutaneous structures to be evaluated.

[5] = test system: claudin-1; assay: Expression of claudin-1 by immunofluorescence on sections of human skin; type: cell-based; conditions: 1% solution of a mother solution at 50 ppm applied topically, 24 hours (0.05 ppm); in particular the upper layers of the epidermis
Source text: as §1, §2, §3
The immunolabeling of claudin-1 is carried out by means of a specific antibody of claudin-1 (claudin-1 antibody: rabbit polyclonal, ref: Ab15098, Abcam, dilution 1/200th), then a secondary antibody, coupled with a fluorescent marker (alexa Fluor 488 donkey anti-rabbit IgG, A21206, Molecular Probes, 1/1000th).
as §4

Substance | aquaporin 3 immunofluorescence [1] | viability of cells subjected to the osmotic shock (dose dependence) ([2]; peptide at 0.5%, 1% and 3% of a mother solution at 50 ppm) | increase of viability of cells subjected to the osmotic shock ([2]; peptide at 3% of a mother solution at 50 ppm, 24 hours before and during shock) | keratin K10 immunofluorescence [3] | appearance of the keratinocytes of the basal layer (regeneration) [4] | signs of cellular stress and preservation of cutaneous structures (H&E sections) ([4]; vs non-treated biopsies) | claudin-1 immunofluorescence [5]
Asn-Pro-Ala-Arg (NPAR) [SEQ ID no4] | stronger fluorescence | increase in the viability, dependent on dose | 12% |  |  |  | 
Asn-Pro-Ala-Arg-NH2 (NPAR-NH2) [SEQ ID no5] |  |  |  | stronger fluorescence | regenerating effect | distinct reduction to the signs of cellular stress and a better preservation of the cutaneous structures | stronger fluorescence
